What was measured:
Assay type in all cases: cell-based, human
5F cells = test: Colony-forming assays of 5F cells treated with GSK126; conditions: 3 uM GSK126
Protocol: Colony assays. After 14 days of respecification, 5×10^4 cells were plated into 3 ml of complete methylcellulose H3434 (StemCell Technologies) supplemented with 10 ng/ml IL6 (Peprotech), 10 ng/ml FLT3 (R&D), and 50 ng/ml TPO (R&D). The mixture was distributed into two 60 mm dishes and maintained in a humidified chamber for 14 days.
(§1) To dissect the importance of PRC2 in definitive hematopoietic potential, the inventors knocked down each component of PRC2 (2 shRNAs per gene) in 5F cells and assessed T cell differentiation. The inventors confirmed efficient knockdown by each shRNA (FIG. 3A). […] To validate this finding, the inventors used an […], GSK126, that has 150-fold higher selectivity for EZH2 over EZH1 (McCabe et al. 2012) (FIGS. 3G, 3I and 3J). […] To test the effect of EZH2 inhibition on T cell potential, the inventors generated definitive hemogenic endothelium (HE) from hPSCs with T lymphoid potential via inhibition of Activin/Nodal signaling at the early stage of mesoderm differentiation (Kennedy et al. 2012).

[1] = tested on: CD34+ d9 hemogenic endothelial (HE) cells; test: T cell potential of CD34+ d9 hemogenic endothelial cells treated with GSK126; conditions: 3 uM GSK126 vs DMSO-treated cells
Source text: as §1

EZH2 and EZH1 = test: Total H3K27me3 protein levels in 5F cells treated with GSK126
Protocol: At 3 uM, protein levels of total H3K27me3 begins to decrease relative to DMSO control, indicating effective dose for EZH2 and EZH1 inhibition.
as §1

## CC[C@H](C)n1cc(C)c2c(C(=O)NCc3c(C)cc(C)[nH]c3=O)cc(-c3ccc(N4CCNCC4)nc3)cc21 [GSK126]
5F cells
  toxicity as assessed by colony-forming assays: partial toxicity
[1]
  CD4+CD8+ T cell population: abrogated
EZH2 and EZH1; 3 uM GSK126, 5F cells
  global H3K27me3: markedly reduced
EZH2 and EZH1; 5F cells
  concentration at which total H3K27me3 begins to decrease relative to DMSO control (effective dose for EZH2 and EZH1 inhibition): 3 µM
EZH2 and EZH1; increasing concentration of GSK126, 5F cells
  EZH2 and EZH1 enzymatic activity as monitored by total protein levels of H3K27me3: dose-dependent decrease
